Experimental data taken from US5366975A, “Invertebrate phenylethanolamine transporter and the use thereof” (priority 1992, dated 1994).
Where a name gives a salt, the structure may show the parent alone. Read-outs that look alike come from different tables or passages of the source.

Assays:
[1] = test system: tobacco hornworms (Manducca sexta); set-up: species or system Manduca sexta; conditions: in vivo
adenylate cyclase = conditions: cockroach, a resistant species; cited from earlier work
Gs -coupled OA receptors = conditions: Manduca, a sensitive species; cited from earlier work
mosquito larvae = experiment: Antilarval activity on mosquito larvae; type: in vivo
Experimental: Five to ten 2-5-day old mosquito larvae, reared from eggs, were placed in small bottles containing 3 ml of water, 2 ml of air space, and a perforated cap open to the air. The compound of interest was dissolved in water or appropriate solvent and added to make a final concentration of from 0.00001 to 1%. The bottles were capped and observed at daily intervals for the number of living larvae, pupae, and emerging adults. After two weeks, the final number of adults emerging as a percentage, relative to control, is plotted as a function of drug concentration.

[2] = test system: octopamine reuptake transporter; type: cell-based, Blaberus; conditions: 100 μM cocaine; ±S.E.M. of triplicate determinations; control 13.6±1.7
Manducca eggs = experiment: Ovicidal assay; type: in vivo, Manduca sexta; conditions: 3% cocaine
Experimental: Test agents were tested for ovicidal activity by dipping groups of 10-50 Manducca eggs in drug solutions for 60 seconds and then determining the percentage of eggs which produced viable larvae. Alternatively, the eggs may be sprayed with the test agent and then placed on artificial media to hatch. A compound with active ovicidal activity was one which decreased the percentage of eggs hatched, relative to control.

[3] = test system: octopamine reuptake transporter; type: biochemical, cockroach
firefly lantern = experiment: Firefly lantern assay (OA-stimulated light emission); type: in vivo, P. pyralis; conditions: fixed dose of cocaine injected simultaneously with OA into isolated firefly tails; zero Ca++/high Mn++
Text: To measure the effects of drugs on firefly light emission, an isolated tail (terminal 3 abdominal segments containing the light organ) of a fresh adult P. pyralis male was mounted on a […] stainless steel needle and placed at the focal point of an optical system connected to a photometer-photomultiplier-chart recorder combination (see Nathanson, J. A., Characterization of octopamine-sensitive adenylate cyclase: Development of a potent and selective class of octopamine-2 receptor agonists with toxic effects in insects, Proc. Natl. Acad. Sci. U.S.A. 82: 599-603 (1985)). Drug (dissolved in insect saline, see Carlson, A.D., Effect of adrenergic drugs on the lantern of the larvae of the Photinus firefly, J. Exp. Biol. 48: 381-387 (1968)) was injected (3-5 μl) into the abdominal cavity dorsal to the lantern and light emission was recorded for 45 minutes or until it peaked, following which the next (larger) dose of drug was injected. In the case of animals injected with drugs other than octopamine, following the last dose, […] of octopamine (a maximally effective dose) was injected. Light production is expressed as radiance, each unit approximately equal to 1.6 nanowatts, as measured in a solid angle of 0.033 steradiants. […]

Row | Molecule | % leaf remaining [1] [%] | RANK ORDER ANTIFEEDING EFFECT IN MANDUCA [1] | antifeeding effect [1] | also measured
1 | 1-(2-[bis-(4-fluorophenyl)methoxy]ethyl)-4-(3-phenyl-2-propenyl)piperazine [GBR 12909] | ~95 | GBR > COC = DMI = AMT > DSP = XYL = | – | –
2 | NCCc1c[nH]c2ccc(O)cc12 [5-HT, serotonin] | – | – | – | antifeeding effect compared to OA [1]: significantly weaker than OA
3 | CN(C)CCC=C1c2ccccc2CCc2ccccc21 [AMT, amitriptyline] | ~100 | GBR > COC = DMI = AMT > DSP = XYL = | – | –
4 | NCCc1ccc(O)c(O)c1 [DA, dopamine] | – | – | no antifeeding effects | antifeeding effect of addition to cocaine [1]: no further increase in antifeeding effect
5 | Cc1cc(Cl)ccc1N=CN [DDCDM, didemethylchlordimeform] | – | – | – | potency in activating adenylate cyclase relative to OA (adenylate cyclase): much weaker than OA; potency relative to OA (full OA agonist) (Gs -coupled OA receptors): 20 fold
6 | CNCCCN1c2ccccc2CCc2ccccc21 [DMI, desmethylimipramine] | ~80 | GBR > COC = DMI = AMT > DSP = XYL = | – | –
7 | CCN(CCCl)Cc1ccccc1Br [DSP-4] | ~100 | GBR > COC = DMI = AMT > DSP = XYL = | – | –
8 | COC(=O)C1=CC[C@@H]2CC[C@H]1N2C [Ecgonidine methyl ester mesylate, (1 R)-8-methyl-8-azabicyclo[3,2,1]oct-2-ene-2-carboxylic acid methyl ester mesylate] | – | – | no antifeeding effect | –
9 | CN1[C@H]2CC[C@@H]1[C@@H](C(=O)O)[C@H](O)C2 [Ecgonine hydrochloride, (-)-beta-hydroxy-1-alpha-H, 5-alpha-H-tropane-2-beta-carboxlic acid hydrochloride] | – | – | no antifeeding effect | –
10 | NC[C@H](O)c1ccc(O)c(O)c1 [NE, norepinephrine] | – | – | – | antifeeding effect compared to OA [1]: significantly weaker than OA
11 | COC(=O)[C@H]1[C@@H](OC(=O)c2ccccc2)C[C@@H]2CC[C@H]1N2C [cocaine] | – | GBR > COC = DMI = AMT > DSP = XYL = | – | percent larvae surviving to mature adulthood (mosquito larvae; 0.01% cocaine in water): approximately 50%; adults produced (mosquito larvae; 0.1% cocaine in water): no adults were produced; total uptake of octopamine [2]: 9.6 ±1.4 pmol/mg protein; percent dead ova (Manducca eggs): greater than 95%; inhibition of sodium-dependent octopamine uptake ([3]; 10 μM cocaine): about 25%; inhibition of sodium-dependent octopamine uptake ([3]; 100 μM cocaine): about 68%; behavior of larvae on sprayed leaves [1]: marked behavioral abnormalities; time after which animals died [1]: 48 to 72 h; leftward shift in the OA dose-response curve (factor) (firefly lantern): about 10
12 | CN1CCC(=C2c3ccccc3C=Cc3ccccc32)CC1 [cyproheptadine] | ~55 | – | – | –
13 | CNCCC(Oc1ccc(C(F)(F)F)cc1)c1ccccc1 (stereo not drawn) [fluoxetine] | ~85 | FLUOX >>MAZ | – | –
14 | CCN(CC)CC(=O)Nc1c(C)cccc1C [lidocaine] | – | – | – | antifeeding inhibition [1]: 15%
15 | OC1(c2ccc(Cl)cc2)c2ccccc2C2=NCCN21 (stereo not drawn) [mazindol] | – | FLUOX >>MAZ | no antifeeding activity | –
16 | CCN(CC)CCOC(=O)c1ccc(N)cc1 [procaine] | – | – | only lidocaine showed any activity | –
